Assays:
[1] = biological target: T1, CXCR3 (Homo sapiens, UniProt P49682); test: competition binding analysis using 35S-SCH 535390 as tracer (SPA); parameters: expressed in transfected cells; host or cells: mouse pro-B Ba/F3 cells (vector pME18Sneo), membrane preparation; settings: competition with 35S-SCH 535390 tracer; multiple experiments; read-out: affinity constant (Ki) of binding to human CXCR3 receptor
T1 sequence (P49682 1-368): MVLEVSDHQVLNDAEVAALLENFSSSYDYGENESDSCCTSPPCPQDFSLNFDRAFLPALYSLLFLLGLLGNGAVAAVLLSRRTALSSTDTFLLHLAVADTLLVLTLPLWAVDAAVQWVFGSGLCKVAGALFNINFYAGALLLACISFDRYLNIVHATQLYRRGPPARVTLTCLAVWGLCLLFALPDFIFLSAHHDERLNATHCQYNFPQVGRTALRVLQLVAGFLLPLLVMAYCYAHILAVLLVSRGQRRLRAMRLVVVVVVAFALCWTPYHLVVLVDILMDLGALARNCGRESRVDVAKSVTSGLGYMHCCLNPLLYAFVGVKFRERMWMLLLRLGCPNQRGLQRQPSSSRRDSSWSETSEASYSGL
Description: (§1) The cDNAs encoding human, mouse and rat CXCR3 were generated based on the published sequences: human (NM_001504), mouse (NM_009910), rat (NM_053415). The cDNAs for monkey and dog CXCR3 were cloned in the lab. All CXCR3 cDNAs were cloned into the mammalian expression vector pME18Sneo, a derivative of the SRα expression vector as described previously. IL-3-dependent mouse pro-B cells Ba/F3 were transfected to express CXCR3 of different species and cell membranes were prepared as described previously.
A scintillation proximity assay was used for radioligand competition binding assays as described previously with some modifications. For each assay point, 1 µg of membrane was preincubated for 1 hr with 300 µg wheat germ agglutinin (WGA) coated SPA beads (GE Healthcare Life Sciences) in the binding buffer (50 mM HEPES, 1 mM CaCl2, 5 mM MgCl2, 125 mM NaCl, 0.002% NaN3, 1.0% BSA) at room temperature. The beads were spun down, resuspended in the binding buffer and transferred to a 96-well Isoplate (Wallac, Gaithersburg, MD). The indicated concentrations of ^125I-hCXCL10, ^125I-hCXCL11 or ^35S-SCH 535390 with a series of titrations of SCH 546738 were added to start the reaction. After indicated reaction times at room temperature, the amount of radioactivity bound to the SPA beads was determined with a Wallac 1450 Microbeta counter (Wallac). […]

[2] = biological target: T1, CXCR3; test: [125I]hCXCL10 competition binding (SPA, Ba/F3 membranes); parameters: expressed in transfected cells; host or cells: mouse pro-B Ba/F3 cells (vector pME18Sneo), membrane preparation
Description: as §1
(§2) A scintillation proximity assay was used for radioligand competition binding assays as described previously with some modifications. For each assay point, 1 µg of membrane was preincubated for 1 hr with 300 µg wheat germ agglutinin (WGA) coated SPA beads (GE Healthcare Life Sciences) in the binding buffer (50 mM HEPES, 1 mM CaCl2, 5 mM MgCl2, 125 mM NaCl, 0.002% NaN3, 1.0% BSA) at room temperature. The beads were spun down, resuspended in the binding buffer and transferred to a 96-well Isoplate (Wallac, Gaithersburg, MD). The indicated concentrations of ^125I-hCXCL10, ^125I-hCXCL11 or ^35S-SCH 535390 with a series of titrations of SCH 546738 were added to start the reaction. After indicated reaction times at room temperature, the amount of radioactivity bound to the SPA beads was determined with a Wallac 1450 Microbeta counter (Wallac).
(§3) The ability of SCH 546738 to compete the binding of [^125I]hCXCL10 and [^125I]hCXCL11 to human CXCR3 receptor was determined using various concentrations of [^125I]hCXCL10 and [^125I]hCXCL11 as described in Methods. After 3 hr reaction, specific counts relative to input counts (B/B0) in the presence of increasing concentrations of SCH 546738 are plotted.

[3] = biological target: T1, CXCR3; test: human activated T cell chemotaxis induced by CXCL9, CXCL10, CXCL11; assay type: cell-based; parameters: endogenous in cells
Description: The preparation of human activated T cells was performed as described previously [39]. Human peripheral blood lymphocytes were prepared by Ficoll-Hypaque centrifugation, depleted of monocytes, and stimulated for 2 days with 1 µg/ml PHA (Murex Diagnostics, Dartford, U.K.) and 100 U/ml IL-2 (Sigma, St. Louis, MO) in RPMI 1640 supplemented with 10% fetal bovine serum (FBS), 2 mM L-glutamine, 100 µg/ml streptomycin, 100 U/ml penecillin, 1% non-essential amino acids and 2 mM HEPES. Following stimulation, peripheral blood lymphocytes were cultured in above media containing 5% conditioned media (Sigma) for up to 15 days.
Human activated T cell chemotaxis assays were performed using 96-well ChemoTx® microplates (Neuro Probe, Inc., Gaithersburg, MD) with a 3 µm filter as per manufacturers' instructions. Activated T cells were washed with RPMI medium twice, and then resuspended in the medium containing 20% FBS. 1.25 × 10^5 cells/reaction were mixed with indicated concentrations of the compound and placed on the filter. The compound and chemokines were mixed and placed in the bottom well of the ChemoTx system. […] The number of migrated cells was measured using the Cell Titer Glo Luminescent Assay from Promega (Madison, WI) as per vendor's instructions. Chemotaxis is expressed as a chemotactic index, which is a ratio versus the one without chemokines (spontaneous migration). […]

[4] = biological target: T2, mouse CXCR3 (Mus musculus, UniProt O88410); test: [125I]hCXCL10 competition binding (SPA, Ba/F3 membranes); settings: read-out: IC50 (nM) (CXCL10)
T2 construct: expressed in transfected cells; host or cells: mouse pro-B Ba/F3 cells (vector pME18Sneo), membrane preparation
T2 sequence (O88410 whole entry): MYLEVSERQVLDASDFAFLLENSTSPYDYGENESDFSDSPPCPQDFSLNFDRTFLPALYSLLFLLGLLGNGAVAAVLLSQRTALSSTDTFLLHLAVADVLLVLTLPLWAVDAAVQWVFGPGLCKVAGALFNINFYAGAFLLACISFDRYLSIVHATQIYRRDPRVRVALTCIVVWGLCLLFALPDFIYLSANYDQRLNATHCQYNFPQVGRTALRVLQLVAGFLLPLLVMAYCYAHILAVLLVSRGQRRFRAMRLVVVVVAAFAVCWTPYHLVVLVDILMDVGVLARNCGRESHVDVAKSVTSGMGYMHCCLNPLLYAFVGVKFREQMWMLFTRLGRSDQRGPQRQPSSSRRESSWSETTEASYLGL
Description: as §1, §2
(§4) It is important to investigate species specificity of SCH 546738 to design in vivo preclinical studies.

[5] = biological target: T3, dog CXCR3 (Canis lupus familiaris, UniProt Q5KSK8); test: as above; settings: read-out: IC50 (nM) (CXCL10)
T3 construct: expressed in transfected cells; host or cells: mouse pro-B Ba/F3 cells (vector pME18Sneo), membrane preparation
T3 sequence (Q5KSK8 whole entry): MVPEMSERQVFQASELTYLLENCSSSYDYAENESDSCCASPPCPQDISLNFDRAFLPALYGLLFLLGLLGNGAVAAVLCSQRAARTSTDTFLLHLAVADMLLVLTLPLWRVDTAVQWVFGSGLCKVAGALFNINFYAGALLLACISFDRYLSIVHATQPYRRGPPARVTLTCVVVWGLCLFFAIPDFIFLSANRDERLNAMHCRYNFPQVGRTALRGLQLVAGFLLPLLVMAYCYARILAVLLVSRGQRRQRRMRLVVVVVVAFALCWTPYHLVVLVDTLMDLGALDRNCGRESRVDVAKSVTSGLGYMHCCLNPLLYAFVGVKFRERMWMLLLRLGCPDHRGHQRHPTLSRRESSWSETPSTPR
Description: as §1, §2, §4

[6] = biological target: T4, rat CXCR3 (Rattus norvegicus, UniProt Q9JII9); test: as above; settings: read-out: IC50 (nM) (CXCL10)
T4 construct: expressed in transfected cells; host or cells: mouse pro-B Ba/F3 cells (vector pME18Sneo), membrane preparation
T4 sequence (Q9JII9 whole entry): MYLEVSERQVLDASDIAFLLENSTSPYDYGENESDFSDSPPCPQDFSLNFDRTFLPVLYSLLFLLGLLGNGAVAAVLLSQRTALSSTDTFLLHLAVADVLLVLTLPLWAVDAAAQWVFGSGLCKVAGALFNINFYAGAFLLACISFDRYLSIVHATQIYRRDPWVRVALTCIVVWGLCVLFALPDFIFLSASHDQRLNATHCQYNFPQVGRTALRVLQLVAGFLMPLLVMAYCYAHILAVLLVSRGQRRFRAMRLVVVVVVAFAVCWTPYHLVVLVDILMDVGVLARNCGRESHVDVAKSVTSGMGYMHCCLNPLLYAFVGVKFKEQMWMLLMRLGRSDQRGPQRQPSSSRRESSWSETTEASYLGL
Description: as §1, §2, §4

[7] = plasma pharmacokinetics after oral dosing in Lewis rat; assay type: in vivo; settings: 10 mg/kg oral in 0.4% methylcellulose, n = 3, read-out: AUC (0-24 hr)
Description: SCH 546738 was tested at concentrations of 1-10 μM against a panel of 49 GPCR binding assays. Most of the assays were not affected by SCH 546738 (Table 2). […] In addition, SCH 546738 has a favourable pharmacokinetic profile in rodents. […] Therefore, SCH 546738 is suitable for in vivo preclinical studies.
Figure 4 Plasma concentration versus time profiles of SCH 546738 in Lewis rat and C57BL/6 mouse. SCH 546738 in 0.4% methylcellulose was administered orally at 10 mg/kg (mpk) in Lewis rats or 30 mpk in C57BL/6 mice. The plasma concentration of SCH 546738 in the blood was calculated as the mean of 3 animals (n = 3) at indicated time points post-dose. Their AUC from 0 to 24 hr is also calculated and indicated.

[8] = biological target: T1, CXCR3; test: [125I]hCXCL11 competition binding (SPA, Ba/F3 membranes); parameters: expressed in transfected cells; host or cells: mouse pro-B Ba/F3 cells (vector pME18Sneo), membrane preparation
Description: as §1, §2, §3

[9] = test system: male B10.RIII mice; test: mouse collagen-induced arthritis (disease score and paw histopathology); assay type: in vivo
Description: Briefly, 12-week-old male B10.RIII mice (Jackson Laboratories, Bar Harbor, ME) were immunized intradermally at five sites with bovine type II collagen (Elastin Products, Owensville, MO) emulsified with an equal volume of complete Freund's adjuvant (CFA). CFA was comprised of a mixture of incomplete Freund's adjuvant (Difco, Detroit, MI) and heat-killed, freeze-dried Mycobacteria tuberculosis (Ministry of Agriculture, Fisheries & Food, Surrey, England). Each mouse received 300 µg/ml bovine type II collagen and 0.5 mg/ml complete Freund's adjuvant. Mice were boosted intraperitoneally with 100 µg of bovine type II collagen on day 20. Disease progression was monitored by a standardized visual scoring system with a scale from 0 to 12 reflecting the degree of swelling/redness of each paw (maximal score 3 per paw) and the number of paws (maximal 4) involved per individual animal.
After euthanasia, front and hind paws of the animals were dissected and fixed by immersion in 10% phosphate-buffered formalin before decalcification. Following decalcification with Cal-Rite (Richard Allen Scientific, Kalamazoo, MI), formalin fixed tissues were processed and sectioned at 5µm. Paraffin sections were stained with Hematoxylin and Eosin (H&E). […] The changes in joint structures, including cartilage destruction, bone erosion/remodelling and pannus formation were scored as follows: 0 = Normal, 1 = Minimal, 2 = Mild, 3 = Moderate, 4 = Marked, 5 = Severe. A grade of 5.5 was also added to address full-thickness cartilage breach. Cellular infiltrates and inflammation in animal joints were scored as the following: 0 = Normal, 1 = Minimal, 2 = Mild, 3 = Moderate, 4 = Marked.
Statistical significance was evaluated by comparing the vehicle-treated group with the experimental group using unpaired t-test. Differences were considered significant when p values were <0.05.
Sixteen days later which was 4 days prior to receiving a BC II boost (day -4); mice were randomized into treatment groups with approximately 10% of the animals in each group having developed at least one swollen paw. Oral twice daily treatment with SCH 546738 was initiated at this time (day -4) and continued through day 9, with a BC II antigen boost on day 0.
SCH 546738 in 0.4% methylcellulose was administered orally twice daily at 3, 10 and 40 mg/kg (mpk). Dosing was initiated 16 days (day -4) postimmunization and continued through day 9.
Paws collected at day 9 from the vehicle (0.4% methylcellulose) and 40 mpk SCH 546738 groups of two independent experiments were analyzed by histopathology.

[10] = 40 mpk, paws collected on day 9

CC[C@H]1CN(c2nc(N)c(C(N)=O)nc2Cl)CCN1C1CCN(Cc2ccc(Cl)cc2)CC1 [SCH 546738]
Ki [1]: 0.4 nM
IC50 ([2]; Human CXCR3, [125I]hCXCL10, read-out: IC50 (nM) (CXCL10)): 0.8 nM
IC50 ([2]; [125I-hIP-10] 100 pM, 3 hr reaction, read-out: IC50): 1 nM
IC50 ([2]; [125I-hIP-10] 500 pM, 3 hr reaction, read-out: IC50): 1.2 nM
IC50 ([2]; [125I]hCXCL10 25-500 pM, read-out: IC50 (constant, independent of input concentration)): ~1 nM
mode of antagonism of CXCL10 and CXCL11 binding to CXCR3 ([2]; both CXCL10 and CXCL11): non-competitive antagonist
IC50 ([2]; range over both radioligands CXCL10 and CXCL11, read-out: IC50 for displacing radiolabeled CXCL10 and CXCL11 from human CXCR3): 0.8 to 2.2 nM
inhibition at 0.01 µM ([3]; 10 nM compound, CXCL9, CXCL10, CXCL11, 20% FBS, read-out: inhibition of T cell chemotaxis induced by all three CXCR3 ligands): ~90%
IC90 ([3]; human activated T cells, read-out: IC90 of CXCR3-mediated chemotaxis): ~10 nM
IC50 [4]: 5.9 nM
IC50 [5]: 6.4 nM
IC50 [6]: 4.2 nM
AUC(0-t) [7]: 7.7 µM·h
IC50 ([8]; [125I-hI-TAC] 12.5 pM, 3 hr reaction, read-out: IC50): 2 nM
IC50 ([8]; [125I-hI-TAC] 50 pM, 3 hr reaction, read-out: IC50): 1.8 nM
IC50 ([8]; [125I-hI-TAC] 250 pM, 3 hr reaction, read-out: IC50): 2.2 nM
IC50 ([8]; [125I]hCXCL11 12.5-250 pM, read-out: IC50 (constant, independent of input concentration)): ~2 nM
effect on disease severity ([9]; 3 mpk oral twice daily): no statistically significant effect
effect on disease score ([9]; 10 mpk oral twice daily, days 7 and 9): protected significantly
effect on disease score ([9]; 40 mpk oral twice daily, day -4 to day 9, days 4, 7 and 9): significant reduction of the disease score
leukocyte infiltration into the joint (histopathology score) [9, 10]: significantly attenuated
structural damage to the bone and cartilage (histopathology score) [9, 10]: significantly attenuated

From PMC3298469, “A selective and potent CXCR3 antagonist SCH 546738 attenuates the development of autoimmune diseases and delays graft rejection” (BMC Immunology, 2012)
